Laboratory results reported in patent US10786580B2, “Cholecystokinin 2 receptor targeted NIR imaging and use thereof” (On Target Laboratories, LLC, priority 2016, dated 2020).
Read-outs that look alike come from different tables or passages of the source.

Key:
CCK2R [1] = molecular target: T1, CCK2R (Homo sapiens, UniProt P32239); test: In vitro binding of CCK2R-NIR compounds to HEK-CCK2R cells (cell bound fluorescence); set-up: expressed in transfected cells; host or cells: HEK (human embryonic kidney) cells, HEK-CCK2R, gift from Dr. Mark Hellmich (UTMB); details: for Kd: CCK2R-positive HEK-CCK2R cancer cells, 1 h at 37° C., read-out: KD; for affinity for CCK2R (in words): in vitro binding affinity data
T1 sequence (P32239 1-447): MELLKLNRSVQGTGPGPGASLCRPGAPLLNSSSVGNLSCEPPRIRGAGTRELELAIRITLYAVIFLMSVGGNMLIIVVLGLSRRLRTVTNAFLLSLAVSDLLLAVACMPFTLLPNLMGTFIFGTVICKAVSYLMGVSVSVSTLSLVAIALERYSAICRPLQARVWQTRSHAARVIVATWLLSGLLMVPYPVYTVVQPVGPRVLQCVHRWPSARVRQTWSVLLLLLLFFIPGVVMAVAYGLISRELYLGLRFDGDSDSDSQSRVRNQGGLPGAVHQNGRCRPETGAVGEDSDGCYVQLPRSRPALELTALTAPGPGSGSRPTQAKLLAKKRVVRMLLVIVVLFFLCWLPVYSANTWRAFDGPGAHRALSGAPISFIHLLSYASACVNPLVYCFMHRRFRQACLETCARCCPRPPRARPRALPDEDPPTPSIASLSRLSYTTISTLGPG
Experimental: (§1) FIG. 4 depicts the binding affinities of CCK2R-NIR compounds 21, 42-44 to CCK2R. CCK2R-positive HEK-CCK2R cancer cells were incubated for 1 h at 37° C. with increasing concentrations of compounds. Media was then removed, washed with fresh media three times, and replaced with PBS. Cell bound fluorescence was assayed as using fluorometer.
CCK2R-positive HEK-CCK2R cancer cells were incubated for 1 h at 37° C. with increasing concentrations of compounds. Media was then removed, washed with fresh media three times, and replaced with PBS. Cell bound fluorescence was assayed as using fluorometer.
as §1, with “13 illustrates” for “4 depicts”, “affinity” for “affinities”, “of” for “of CCK2R-NIR”, “[…]” for “21, 42-44”, “compound 21.” for “compounds.”
HEK-CCK2 cells (a human embryonic kidney cells transfected with CCK2 receptor) were a kind gift from Dr. Mark Hellmich (University of Texas Medical Branch, Galveston, Tex.) and grown as a monolayer using Dulbecco's Modified Eagles Medium (GIBCO) (Gibco, NY) 10% heat-inactivated fetal bovine serum (Atlanta Biological, GA) and 1% penicillin streptomycin (Gibco, NY) in a 5% carbon dioxide: 95% air-humidified atmosphere at 37° C. for at least six passages before they were used for the assays.
HEK cells that overexpress CCK2 were seeded into a T75 flask and allowed to form a monolayer over 48 h. After trypsin digestion, release cells were transferred into centrifuge tubes (1×10^6 cells/tube) and centrifuged. The medium was replaced with fresh medium containing increasing concentration of requisite CCK2R-Ligand-NIR dye compound in the presence or absence of 100-fold excess the ligand, a high affinity CCK2 receptor antagonist, and incubated for 1 h at 37° C. After rinsing with fresh medium (2×1.0 mL) and PBS (1×1.0 mL), cells were resuspended in PBS (1.0 mL) and cell bound fluorescence was analyzed (100,000 cells/sample) using a fluorometer (Cary, Agilent). The relative binding affinities were calculated using a plot of % cell bound fluorescence versus the log concentration of the test article using GraphPad Prism 4.

CCK1R = molecular target: T2, CCK1R (Homo sapiens, UniProt P32238); details: cited from earlier work
T2 sequence (P32238 1-428): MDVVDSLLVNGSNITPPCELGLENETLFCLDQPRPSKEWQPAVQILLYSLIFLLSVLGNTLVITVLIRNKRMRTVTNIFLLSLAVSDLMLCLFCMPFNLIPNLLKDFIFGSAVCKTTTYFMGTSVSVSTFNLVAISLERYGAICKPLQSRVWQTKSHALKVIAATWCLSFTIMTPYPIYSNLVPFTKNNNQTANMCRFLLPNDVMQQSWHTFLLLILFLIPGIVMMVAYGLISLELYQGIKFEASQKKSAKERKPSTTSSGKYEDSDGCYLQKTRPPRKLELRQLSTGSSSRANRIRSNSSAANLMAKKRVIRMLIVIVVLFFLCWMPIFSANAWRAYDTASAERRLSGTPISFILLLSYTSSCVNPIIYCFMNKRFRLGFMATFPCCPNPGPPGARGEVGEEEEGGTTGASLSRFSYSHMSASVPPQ

[2] = system: subcutaneous PANC-1 tumor; details: oral Z-360 along with gemcitabine, cited from earlier work
CCK2R [3] = molecular target: T1, CCK2R; details: cited from earlier work

Row | SMILES | affinity for CCK2R (in words) (CCK2R [1]; HEK-CCK2R cells) | Kd (CCK2R [1]; Table 2) [nM] | other results
1 | CC(C)(C)C(=O)CN1C(=O)[C@H](NC(=O)Nc2cccc(C(=O)N[C@H](CCC(=O)N[C@@H](CCCNC(=N)N)C(=O)N[C@@H](Cc3ccc(OC4=C(/C=C/C5=[N+](CCCCS(=O)(=O)[O-])c6ccc(S(=O)(=O)O)cc6C5(C)C)CCC/C4=C\C=C4\N(CCCCS(=O)(=O)O)c5ccc(S(=O)(=O)O)cc5C4(C)C)cc3)C(=O)O)C(=O)O)c2)CN(C2CCCCC2)c2ccccc21 [Compound 42] | relatively weaker affinity |  | Kd (CCK2R [1]; Table 1): 1.74 nM
2 | CC(C)(C)C(=O)CN1C(=O)[C@@H](NC(=O)Nc2cccc(C(=O)N[C@H](CCC(=O)O)C(=O)N[C@H](Cc3ccc(OC4=C(/C=C/C5=[N+](CCCCS(=O)(=O)[O-])c6ccc(S(=O)(=O)O)cc6C5(C)C)CCC/C4=C\C=C4\N(CCCCS(=O)(=O)O)c5ccc(S(=O)(=O)O)cc5C4(C)C)cc3)C(=O)O)c2)CN(C2CCCCC2)c2ccccc21 [Compound 43] | very high affinity |  | 
3 | CC(C)(C)C(=O)CN1C(=O)[C@@H](NC(=O)Nc2cccc(C(=O)N[C@@H](CCC(=O)N[C@H](CCCNC(=N)N)C(=O)N[C@H](CC(=O)O)C(=O)N[C@H](Cc3ccc(OC4=C(/C=C/C5=[N+](CCCCS(=O)(=O)[O-])c6ccc(S(=O)(=O)O)cc6C5(C)C)CCC/C4=C\C=C4\N(CCCCS(=O)(=O)O)c5ccc(S(=O)(=O)O)cc5C4(C)C)cc3)C(=O)O)C(=O)O)c2)CN(C2CCCCC2)c2ccccc21 [Compound 44] | relatively weaker affinity |  | 
4 | CC(C)(C)C(=O)CN1C(=O)[C@H](NC(=O)Nc2cccc(C(=O)N[C@@H](CCC(=O)N[C@@H](Cc3ccc(OC4=C(/C=C/C5=[N+](CCCCS(=O)(=O)[O-])c6ccc(S(=O)(=O)O)cc6C5(C)C)CCC/C4=C\C=C4\N(CCCCS(=O)(=O)O)c5ccc(S(=O)(=O)O)cc5C4(C)C)cc3)C(=O)O)C(=O)O)c2)CN(C2CCCCC2)c2ccccc21 [Compound 45] |  | 2.3 | 
5 | CC(C)(C)C(=O)CN1C(=O)[C@@H](NC(=O)Nc2cccc(C(=O)N[C@H](CCC(=O)N[C@@H](Cc3ccc(OC4=C(/C=C/C5=[N+](CCCCS(=O)(=O)[O-])c6ccc(S(=O)(=O)O)cc6C5(C)C)CCC/C4=C\C=C4\N(CCCCS(=O)(=O)O)c5ccc(S(=O)(=O)O)cc5C4(C)C)cc3)C(=O)O)C(=O)O)c2)CN(C2CCCCC2)c2ccccc21 [Compound 47] | relatively weak affinity | 14.7 | 
6 | CC(C)(C)C(=O)CN1C(=O)[C@H](NC(=O)Nc2cccc(C(=O)NCCCC(=O)N[C@@H](Cc3ccc(OC4=C(/C=C/C5=[N+](CCCCS(=O)(=O)[O-])c6ccc(S(=O)(=O)O)cc6C5(C)C)CCC/C4=C\C=C4\N(CCCCS(=O)(=O)O)c5ccc(S(=O)(=O)O)cc5C4(C)C)cc3)C(=O)O)c2)CN(C2CCCCC2)c2ccccc21 [Compound 48] | very high affinity | 0.9 | affinity for CCK2R compared to compound 21 (CCK2R [1]; HEK-CCK2R cells): less affinity
7 | CC(C)(C)C(=O)CN1C(=O)[C@H](NC(=O)Nc2cccc(C(=O)NCCCC(=O)N[C@H](Cc3ccc(OC4=C(/C=C/C5=[N+](CCCCS(=O)(=O)[O-])c6ccc(S(=O)(=O)O)cc6C5(C)C)CCC/C4=C\C=C4\N(CCCCS(=O)(=O)O)c5ccc(S(=O)(=O)O)cc5C4(C)C)cc3)C(=O)O)c2)CN(C2CCCCC2)c2ccccc21 [Compound 49] |  | 13.9 | 
8 | CC(C)(C)C(=O)CN1C(=O)[C@H](NC(=O)Nc2cccc(C(=O)O)c2)CN(C2CCCCC2)c2ccccc21 [Compound Z-360] |  |  | selectivity ratio over CCK1R (CCK1R): 672; inhibition of subcutaneous PANC-1 tumor growth ([2]; compared with either agent alone): 27.1%; survival compared with the vehicle [2]: significantly increased survival; Ki (CCK2R [3]): 0.47 nM
